Test results reported in patent US8394742B2, “Methods, compounds and compositions with genotype selective anticancer activity” (The Translation Genomics Research Institute, priority 2005, dated 2013).

Legend:
[1] = system: DPC4; assay: DPC4 suppression by siRNA expression constructs, transient transfection; assay type: cell-based, human; conditions: MiaPaCa-2 (wild-type DPC4), 24 hours after transfection
Description: The pMSCVproH vector was first used to create 6 DPC4 siRNA expression constructs, each of which targets a different region of the DPC4 transcript. Each of the oligonucleotide sequences was designed based on the criteria described by Tuschl and co-workers (65) and blasted against the GenBank database to confirm their specificity for DPC4.
Applicants first tested the ability of these constructs in suppressing DPC4 expression by performing transient transfections. Each construct was transiently transfected into the pancreatic cancer cell line MiaPaCa-2 (wild-type DPC4) using the Lipofectin Reagent (Invitrogen). DPC4 expression was examined 24 hours after transfection.

[2] = system: DPC4; assay: DPC4 suppression in HPDE6 clones after retrovirus infection (Western blot); assay type: cell-based, human
Description: Because of its high suppression ability in transient transfections, the construct pMSCVpuroH_DPC4_oligo4 was chosen to generate a cell line with stable DPC4 suppression from HPDE6. To verify the specificity of Oligo4, Applicants created a construct with a mutated Oligo4, Oligo4mut10. The only difference between the two oligos is that the nucleotide residue at position 10 was changed from cytosine in Oligo4 to adenine in Oligo4mut10 (FIG. 11A). After retrovirus infection, HPDE6 cells were selected with puromycin at 3 μg/ml. Individual clones were isolated using serial dilution of the cells in 96-well plates. Ten individual clones for each construct were picked and tested for DPC4 expression at protein level by Western blot.
Eight passages after the infection, the expression of DPC4 in this clone was still 90% inhibited compared to the HPDE6 cells transfected with the empty vector (HPDE6-vector). This new cell line, which was named HPDE6-siDPC4, along with HPDE6-vector forms a set of isogenic cell lines for the DPC4 gene.

## 5′AGCAAGGTTGCACATAGGC 3′ [Olig6]
[1]
  DPC4 suppression: about 80%

## 5′GTAGGACTGCACCATACAC 3′ [Oligo4]
[2]; HPDE6 clone (HPDE6-siDPC4), eight passages after infection, vs HPDE6-vector
  expression of DPC4 inhibited: 90%
[2]; HPDE6 individual clones, six out of 10, protein level by Western blot
  DPC4 suppression: about 90%
[1]
  DPC4 suppression: about 90%
